Results taken from patent publication US20150164916A1, “ROFLUMILAST COMPOSITIONS FOR THE TREATMENT OF COPD” (Forest Laboratories Holdings Ltd., priority 2012, published 2015).

Columns and labels:
Type in all cases: cell-based, human
PI3Kδ = assay: Real time RT-PCR of PI3Kδ expression in CSE-stimulated neutrophils from COPD patients; conditions: RNO 1 nM and 1 μM, DEX 1 μM, RNO 1 nM plus DEX 1 μM, NAC 1 mM, CSE 5%
Description: (§1) Neutrophils and monocytes were isolated from peripheral venous blood by standard laboratory procedures. In brief, peripheral venous blood was mixed with dextran 500 at 3% (in 0.9% saline) in a proportion of 2:1. This mixture was incubated at room temperature for 30 min until erythrocytes were sedimented. The upper phase was carefully collected and added on Ficoll-Paque Histopaque 1077 (Amershan Pharmacia Biotech, Barcelona, Spain) density gradient in a proportion of 3:1. The two phases generated were centrifuged at 150 g, 4° C. for 30 min. […]
(§2) CSE was prepared as previously outlined (Milara et al.; Ortiz et al.). […] The quality of the prepared CSE solution was assessed based on the absorbance at 320 nm, which is the specific absorption wavelength of peroxynitrite. Stock solutions with an absorbance value of 3.0±0.1 were used. […]
(§3) Total RNA was obtained from isolated neutrophils under basal conditions or after different drug and stimulation periods defined above by using TriPure® Isolation Reagent (Roche, Indianapolis, USA). […] Relative quantification of these transcripts was determined with the 2^−ΔΔCt method using glyceraldehyde phosphate dehydrogenase (GAPDH) as endogenous control (Applied Biosystems; 4352339E) and normalized to control group as previously described (Milara et al., 2009).
(§4) Then, mRNA was isolated and quantified for different genes.

GCβ = assay: Real time RT-PCR of GCβ mRNA in CSE-stimulated neutrophils from COPD patients; conditions: RNO 1 nM and 1 μM, DEX 1 μM, RNO 1 nM plus DEX 1 μM, NAC 1 mM, CSE 5%
Description: as §1, §2, §3, §4

intracellular ROS = assay: Intracellular reactive oxygen species (ROS) by flow cytometry in whole blood neutrophils from COPD patients; conditions: fMLP 1 μM or CSE 5%, 1 h, NAC 1 mM
Description: Intracellular reactive oxygen species (ROS) were measured by a flow cytometry assay using 2′,7′-dichlorodihydrofluorescein diacetate (H2DCF-DA, Molecular Probes, UK) as previously outlined (Milara et al., 2010). H2DCF-DA was added for 15 min before stimulus to a final concentration of 5 μM to measure intracellular ROS. The bacterial peptide fMLP was added as stimulus at 1 μM […] to generate intracellular ROS (Elbim et al., 2001). In other experiments, to reproduce in vivo conditions, CSE 5% was added to generate intracellular ROS. Intracellular ROS was measured using fresh whole blood from COPD patients. Blood neutrophils were selected using CD16-Alexa Fluor 647 antibody (molecular probes, UK) as neutrophil marker, and CD14-PerCEP-Cy5.5 mouse antihuman (molecular probes, UK) as monocyte marker in an Epics Profile II flow cytometer. A total of 1 ml of whole blood was pre-incubated at 37° C. for 30 min with RNO ([…] (1 mM) and H2DCF-DA followed by fMLP 1 μM or CSE 5% stimulation for another 1 h. Then erythrocytes were lysed using a commercial erythrocyte lysis buffer (Biolegend, UK) for 10 min. Fluorescence intensity was measured in the polymorphonuclear region of whole blood in an Epics Profile II flow cytometer. Results were expressed as DCF fluorescence in relative fluorescence units (RFU).
To this end, whole blood was stimulated with the bacterial peptide fMLP 1 μM or with CSE 5% in presence or absence of RNO or NAC for 1 h.

O=C(Nc1c(Cl)c[n+]([O-])cc1Cl)c1ccc(OC(F)F)c(OCC2CC2)c1 [RNO, roflumilast N-oxide]
effect on CSE-induced PI3Kδ upregulation (PI3Kδ): inhibited
effect on CSE-induced GCβ upregulation (GCβ): inhibited
effect on ROS generation in neutrophils (intracellular ROS): dose-dependently inhibited
effect on ROS generation in neutrophils (intracellular ROS; listed as Roflumilast N-oxide): inhibits
